The results in this text go back to US7781590B2, “Piperidinylalkylcarbamate derivatives, methods for their preparation and the therapeutic use thereof as fatty acid amido hydrolase enzyme inhibitors” (Sanofi-Aventis, priority 2004, dated 2010).

Data set [1] has as its target T1, enzyme FAAH (fatty acid amide hydrolase) (Mus musculus, UniProt O08914).
T1 construct: Membrane homogenates are prepared at the time of use by homogenizing the tissues in a Polytron; from tissue; host or cells: mouse brain (minus the cerebellum), membrane homogenate
T1 sequence (O08914 1-579): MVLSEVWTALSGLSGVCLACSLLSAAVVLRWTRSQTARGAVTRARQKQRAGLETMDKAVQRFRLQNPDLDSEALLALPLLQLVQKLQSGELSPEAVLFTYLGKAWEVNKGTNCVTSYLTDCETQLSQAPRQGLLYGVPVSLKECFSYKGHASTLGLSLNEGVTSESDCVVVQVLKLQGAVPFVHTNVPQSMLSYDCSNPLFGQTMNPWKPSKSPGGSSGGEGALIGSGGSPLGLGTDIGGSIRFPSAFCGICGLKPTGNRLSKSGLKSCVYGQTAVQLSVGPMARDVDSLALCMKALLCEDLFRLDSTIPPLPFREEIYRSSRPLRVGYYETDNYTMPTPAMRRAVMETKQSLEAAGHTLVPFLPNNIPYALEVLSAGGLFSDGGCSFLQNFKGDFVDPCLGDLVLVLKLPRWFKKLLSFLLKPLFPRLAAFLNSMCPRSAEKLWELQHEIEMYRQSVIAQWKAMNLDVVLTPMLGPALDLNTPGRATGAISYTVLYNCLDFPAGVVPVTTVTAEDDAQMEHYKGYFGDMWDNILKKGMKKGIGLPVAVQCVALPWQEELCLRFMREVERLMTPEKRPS
Nature of the data set: radioenzymatic assay of FAAH inhibition (hydrolysis of anandamide [1-3H ethanolamine], mouse brain membrane homogenates). Type of data set: biochemical. Conditions: 10 μM anandamide, 15 minutes at 25° C., read-out: IC50 (concentration inhibiting by 50% the control enzymatic activity of FAAH). As for the experimental part:
The compounds of the invention were subjected to pharmacological tests allowing determination of their inhibitory effect on the enzyme FAAH (fatty acid amide hydrolase).
Accordingly, mouse brains (minus the cerebellum) are removed and stored at −80° C. Membrane homogenates are prepared at the time of use by homogenizing the tissues in a Polytron in a 10 mM Tris-HCl buffer (pH 8.0) containing 150 mM NaCl and 1 mM EDTA. The enzymatic reaction is subsequently conducted in 70 μl of buffer containing bovine serum albumin without fatty acids (1 mg/ml). In succession the test compounds, at various concentrations, anandamide [1-^3H ethanolamine] (specific activity: 15-20 Ci/mmol) diluted to 10 μM with cold anandamide, and the membrane preparation (400 μg of frozen tissue per assay) are added. After 15 minutes at 25° C., the enzymatic reaction is terminated by adding 140 μl of chloroform/methanol (2:1). The mixture is stirred for 10 minutes and then centrifuged for 15 minutes at 3500 g. An aliquot (30 μl) of the aqueous phase containing the ethanolamine [1-^3H] is counted by liquid scintillation.

A further data set concerns male OF1 mice. Nature of the data set: analgesia test: abdominal stretches induced by PBQ (phenylbenzoquinone). Conditions: 10 mg/kg p.o. at 120 minutes. Type of data set: in vivo. As for the experimental part:
The in vivo activity of the compounds of the invention was evaluated in an analgesia test.
Accordingly, intraperitoneal (i.p.) administration of PBQ (phenylbenzoquinone, 2 mg/kg in a 0.9% sodium chloride solution containing 5% of ethanol) to male OF1 mice weighing 25 to 30 g causes abdominal stretches, on average 30 twists or contractions during the period from 5 to 15 minutes after injection. The test compounds are administered orally (p.o.) or intraperitoneally (i.p.) in suspension in Tween 80 at 0.5%, 60 minutes or 120 minutes before the administration of PBQ.

What is called melting point is the temperature of the solid-liquid transition. `CNC(=O)COC(=O)NCCC1CCN(Cc2ccc(-c3ccccc3)cc2)CC1` [Compound 25, 2-(methylamino)-2-oxoethyl 2-[1-(biphenyl-4-ylmethyl)piperidin-4-yl]ethylcarbamate]: the melting point is 106 to 110 °C. Further, the IC50 in data set [1] was found to be 225 nM. On to `CNC(=O)COC(=O)NCCC1CCN(Cc2ccc(-c3ccc(F)cc3)cc2F)CC1` [Compound 26, 2-(methylamino)-2-oxoethyl 2-{1-[(3,4′-difluorobiphenyl-4-yl)methyl]piperidin-4-yl}ethylcarbamate], for which the melting point fell in the range of 143 to 145 °C. The “reduction of the number of stretches induced by PBQ” value with male OF1 mice was 56%. Consider `CNC(=O)COC(=O)NCC1CCN(CCOc2ccc(Cl)cc2Cl)CC1` [Compound 77], for which, in data set [1], the IC50 amounted to 49 nM.
